Assay results published in US9468693B2, “Labeled molecular imaging agents and methods of use” (GENERAL ELECTRIC COMPANY, priority 2014, dated 2016).

Molecular target: T1, cystine/glutamate transporter (Homo sapiens, UniProt Q9UPY5)
T1 construct: endogenous in cells; host or cells: SKOV3 cells treated with 100 uM DEM (the paragraph also says 'DEM treated EL4 cells')
T1 sequence (Q9UPY5 1-501): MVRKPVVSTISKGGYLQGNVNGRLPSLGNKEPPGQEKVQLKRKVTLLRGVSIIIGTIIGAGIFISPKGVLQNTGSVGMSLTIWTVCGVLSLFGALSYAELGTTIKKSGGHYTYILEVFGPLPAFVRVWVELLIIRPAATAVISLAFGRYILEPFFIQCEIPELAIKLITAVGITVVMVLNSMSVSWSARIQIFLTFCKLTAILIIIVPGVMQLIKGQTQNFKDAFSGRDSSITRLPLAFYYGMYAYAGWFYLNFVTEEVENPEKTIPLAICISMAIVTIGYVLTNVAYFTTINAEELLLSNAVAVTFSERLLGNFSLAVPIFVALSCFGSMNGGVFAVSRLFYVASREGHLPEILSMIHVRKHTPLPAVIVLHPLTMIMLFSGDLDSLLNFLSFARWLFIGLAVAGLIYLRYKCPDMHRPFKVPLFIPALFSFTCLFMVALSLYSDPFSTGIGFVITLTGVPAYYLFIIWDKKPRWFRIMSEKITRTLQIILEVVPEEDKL
T1 sequence (P08195 2-529 partner): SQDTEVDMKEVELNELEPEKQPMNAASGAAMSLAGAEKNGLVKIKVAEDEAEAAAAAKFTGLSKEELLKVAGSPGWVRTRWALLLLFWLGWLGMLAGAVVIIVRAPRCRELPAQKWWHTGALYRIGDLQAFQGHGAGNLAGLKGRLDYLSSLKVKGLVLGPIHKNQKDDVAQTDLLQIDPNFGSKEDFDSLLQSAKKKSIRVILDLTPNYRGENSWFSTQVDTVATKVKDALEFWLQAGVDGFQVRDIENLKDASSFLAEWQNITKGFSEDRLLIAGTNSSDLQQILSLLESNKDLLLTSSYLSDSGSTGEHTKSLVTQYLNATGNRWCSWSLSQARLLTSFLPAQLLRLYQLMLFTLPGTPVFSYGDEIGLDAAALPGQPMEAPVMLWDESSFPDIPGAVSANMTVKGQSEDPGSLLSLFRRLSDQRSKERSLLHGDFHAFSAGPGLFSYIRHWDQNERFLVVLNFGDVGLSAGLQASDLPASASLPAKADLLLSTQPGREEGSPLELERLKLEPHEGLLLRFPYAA
Test: inhibition of 3H-L-Glu uptake in DEM treated cells
Assay type: cell-based
Details: 0.5 h; 1 mM agent; 30 minutes uptake at room temperature; cells pretreated with 100 μM DEM overnight; triplicate; lower = inhibition of the transporter; read-out: % of contro1 3H-Glu uptake
Description: Following are non-limiting examples used to illustrate various embodiments of the imaging agents and methods of use. As such Table 1 provides examples of the non-labelled analog of the final product. Also provided are measurements of inhibition response of ^3H-L-GLU (control) uptake in DEM treated EL4 cells. As such 96 well plate were seeded with 100,000 SKOV3 cells/well in complete growth media (McCoy's+10% Fetal Bovine Serum(FBS)) and incubated overnight at 37° C. The media was changed to 100 μM DEM and again incubated overnight at 37° C. Wash 1× with Hank's Balanced Salt Solution (HBSS) Room Temperature and assayed 50 μl of each agent (Table 1) in triplicate by incubating for 30 minutes (uptake) at room temperature. It was then washed twice with HBSS and 200 μl MicroScint20 added for counting. The protocol used 200 uCi 3H-Glu per well. The mix and agent and ^3H-Glu provided a final concentration of 200 uCi and 1 mM agent. […] As such lower response is indicative of inhibition of the transporter. As such numbers below approximately 30% is equivalent to 70% inhibition and are considered good candidates for pharmaceutical agents.

Row | Compound | remaining activity at 1000 µM [%]
1 | N[C@@H](CCC(=O)N1CCC[C@H]1C(=O)O)C(=O)O [1a] | 46.3
2 | N[C@@H](CCC(=O)N1CCC[C@@H]1C(=O)O)C(=O)O [1b] | 84
3 | N[C@@H](CCC(=O)N1C[C@H](O)C[C@H]1C(=O)O)C(=O)O [1c] | 73.6
4 | N[C@@H](CCC(=O)N1C[C@H](F)C[C@H]1C(=O)O)C(=O)O [1d] | 51.8
5 | N[C@@H](CCC(=O)N1C[C@@H](O)C[C@@H]1C(=O)O)C(=O)O [1e] | 74
6 | N[C@@H](CCC(=O)N1C[C@@H](O)C[C@H]1C(=O)O)C(=O)O [1f] | 30.8
7 | N[C@@H](CCC(=O)N1C[C@H](O)C[C@@H]1C(=O)O)C(=O)O [1g] | 94.7
8 | N[C@@H](CCC(=O)N1C[C@H](c2ccccc2)C[C@H]1C(=O)O)C(=O)O [1h] | 52.3
9 | N[C@@H](CCC(=O)N1C[C@@H](c2ccccc2)C[C@H]1C(=O)O)C(=O)O [1i] | 46.2
10 | N[C@@H](CCC(=O)N1C[C@@H](Oc2ccccc2)C[C@H]1C(=O)O)C(=O)O [1j] | 33
11 | N[C@@H](CCC(=O)N1C[C@H](Cc2ccccc2)C[C@H]1C(=O)O)C(=O)O [1k] | 30.9
12 | N[C@@H](CCC(=O)N1C[C@H](Oc2ccccc2)C[C@H]1C(=O)O)C(=O)O [1l] | 36.6
13 | N[C@@H](CCC(=O)N1C[C@H](OCc2ccccc2)C[C@H]1C(=O)O)C(=O)O [1m] | 14.9
14 | N[C@@H](CCC(=O)N1C[C@@H](OCc2ccccc2)C[C@H]1C(=O)O)C(=O)O [1n] | 26.2
15 | N[C@@H](CCC(=O)N1C[C@@H](OCc2ccccc2)CC1C(=O)O)C(=O)O (some centres unmarked) [1o] | 43.2
16 | N[C@@H](CCC(=O)N1C[C@H](OCc2ccccc2)CC1C(=O)O)C(=O)O (some centres unmarked) [1p] | 50
17 | CCOc1cccc(CO[C@@H]2C[C@@H](C(=O)O)N(C(=O)CC[C@H](N)C(=O)O)C2)c1 [1q] | 14.5
18 | N[C@@H](CCC(=O)N1C[C@H](OCc2ccc(COCCF)cc2)C[C@H]1C(=O)O)C(=O)O [1r] | 10.1

Same assay, conditions: comparison of the 2S,4R-hydroxyproline scaffold with the other stereoisomers

Row | Compound | uptake compared to structures 1n, 1o, or 1p (hydroxyproline stereoisomers)
19 | N[C@@H](CCC(=O)N1C[C@H](OCc2ccccc2)C[C@H]1C(=O)O)C(=O)O [1m] | improved uptake

Molecular target: T2, oxidative stress transporter (Homo sapiens, UniProt Q9UPY5)
T2 sequence (Q9UPY5 1-501): T1 sequence (Q9UPY5 1-501)
T2 sequence (P08195 1-529 partner): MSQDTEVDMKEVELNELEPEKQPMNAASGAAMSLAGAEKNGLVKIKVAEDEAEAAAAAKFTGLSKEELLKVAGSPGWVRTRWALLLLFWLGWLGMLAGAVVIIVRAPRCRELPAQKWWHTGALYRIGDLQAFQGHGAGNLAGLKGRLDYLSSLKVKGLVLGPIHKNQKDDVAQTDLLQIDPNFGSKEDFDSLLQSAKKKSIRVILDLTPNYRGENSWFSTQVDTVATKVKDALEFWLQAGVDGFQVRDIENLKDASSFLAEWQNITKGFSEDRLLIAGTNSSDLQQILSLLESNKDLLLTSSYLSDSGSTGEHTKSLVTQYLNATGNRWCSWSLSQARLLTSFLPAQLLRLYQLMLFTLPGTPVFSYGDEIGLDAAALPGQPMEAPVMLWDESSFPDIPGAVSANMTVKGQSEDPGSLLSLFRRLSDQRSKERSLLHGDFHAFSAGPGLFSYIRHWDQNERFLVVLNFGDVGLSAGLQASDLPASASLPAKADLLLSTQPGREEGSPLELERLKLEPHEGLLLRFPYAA
Test: not given
Details: as reported in U.S. patent application Ser. No. 13/234,210; cited from earlier work

Row | Compound | uptake via the oxidative stress transporter
20 | N[C@@H](CCCCCC(=O)O)C(=O)O [aminosuberic acid] | good uptake
